Structures can show the parent of a compound that is named as a salt.
How the values were obtained:
Assay type in all cases: biochemical
PIM-1 = PIM-1 (Homo sapiens, UniProt P11309); experiment: Enzyme PIM-1 Assay ([33P]ATP incorporation into PIM2tide, filter plate); settings: averaged IC50; 35 μM ATP, 7.5 μM PIM2tide, 0.25 nM PIM-1, 60 min at 22° C.
Procedure, shortened: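 Radiometric assay: 0.25 nM PIM-1 phosphorylates 7.5 μM PIM2tide with 35 μM [γ-33P]ATP in 20 mM MOPS pH 7.4, 10 mM MgCl2, 1 mM DTT, 0.005% Tween-20, 60 min at 22 °C. Product captured on P81 filters, scintillation counted; 10-point 3-fold curve from 10 μM top, 2% DMSO, IC50 by 4-parameter logistic fit of POC.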

recombinant rat PIM-3 = recombinant rat PIM-3 (Rattus norvegicus, UniProt O70444); experiment: PIM-3 Assay (as Example A); settings: averaged IC50; 30 μM ATP, 3.75 μM PIM2tide, 0.5 nM PIM-3
Procedure, shortened: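 Recombinant rat PIM-3 (0.5 nM) with 3.75 μM PIM2tide and 30 μM [γ-33P]ATP in MOPS pH 7.4 buffer, 60 min at 22 °C; labelled peptide captured on phosphocellulose filters and counted by scintillation. 10-point curve (top dose 10 μM, 2% DMSO); IC50 from 4-parameter fit of percent of control.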

[1] = target: T1, GST-tagged recombinant full-length human Pim-2 (Homo sapiens, UniProt Q9P1W9); experiment: PIM-2 Assay (as Example A); settings: averaged IC50; 4 μM ATP, 1.0 μM PIM2tide, 1.5 nM Pim-2
T1 construct: GST-tagged recombinant full-length human Pim-2; GST
Procedure, shortened: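 Radiometric filter-binding assay: GST-tagged full-length human Pim-2 (1.5 nM) phosphorylates 1.0 μM PIM2tide with 4 μM [γ-33P]ATP for 60 min at 22 °C in pH 7.4 MOPS buffer, 2% DMSO. 10-point 3-fold dilutions from 10 μM top dose; IC50 from 4-parameter fit of percent of control.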

Chain of PIM-1 (P11309 whole entry, species assumed): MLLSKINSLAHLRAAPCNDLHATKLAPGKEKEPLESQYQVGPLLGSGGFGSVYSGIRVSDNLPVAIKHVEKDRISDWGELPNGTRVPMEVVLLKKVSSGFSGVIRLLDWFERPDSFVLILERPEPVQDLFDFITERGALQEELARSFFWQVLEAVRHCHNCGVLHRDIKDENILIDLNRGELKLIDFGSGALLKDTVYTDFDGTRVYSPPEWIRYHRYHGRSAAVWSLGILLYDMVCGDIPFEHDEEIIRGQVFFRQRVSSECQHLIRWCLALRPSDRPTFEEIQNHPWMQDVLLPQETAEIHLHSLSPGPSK
T1 sequence (Q9P1W9 whole entry): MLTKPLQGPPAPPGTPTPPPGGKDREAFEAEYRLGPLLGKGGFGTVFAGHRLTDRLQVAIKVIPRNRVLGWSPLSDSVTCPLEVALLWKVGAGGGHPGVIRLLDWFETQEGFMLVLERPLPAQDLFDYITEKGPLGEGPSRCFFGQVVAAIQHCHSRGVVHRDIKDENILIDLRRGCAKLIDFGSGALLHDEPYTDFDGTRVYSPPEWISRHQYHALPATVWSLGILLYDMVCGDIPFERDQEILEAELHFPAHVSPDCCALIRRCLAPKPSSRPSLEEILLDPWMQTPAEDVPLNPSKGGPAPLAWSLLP

Compound	IC50 (PIM-1) [nM]	IC50 (recombinant rat PIM-3) [nM]	IC50 [1] [nM]
CC1(O)CCN([C@H](c2ccc3nnc(-c4ccc5cccc(C(C)(C)C)c5n4)n3c2)C(F)(F)F)C1 (single isomer, unassigned; diastereomer 1) [Example 195, hydrochloride]	21.3	53	> 1000
N[C@H]1CCN([C@@H](c2ccc3nnc(-c4ccc5ccc(C6CC6)cc5n4)n3c2)C(F)(F)F)C1 (single isomer, unassigned) [Example 12]	0.4	1.1	51
C[C@]1(N)CCN([C@@H](c2ccc3nnc(-c4ccc5ccc(CCO)cc5n4)n3c2)C(F)(F)F)C1 [Example 317, 2-(2-(6-((S)-1-((S)-3-amino-3-methylpyrrolidin-1-yl)-2,2,2-trifluoroethyl)-[1,2,4]triazolo[4,3-a]pyridin-3-yl)quinolin-7-yl)ethanol]	0.34	0.4	194
COc1cc2nc(-c3nnc4ccc([C@@H](N5C[C@@H](N)[C@@H](O)C5)C(F)(F)F)cn34)ccc2cc1F [Example 131, (3S,4R)-4-amino-1-((R)-2,2,2-trifluoro-1-(3-(6-fluoro-7-methoxyquinolin-2-yl)-[1,2,4]triazolo[4,3-a]pyridin-6-yl)ethyl)pyrrolidin-3-ol dihydrochloride]	2.18	17	787
N[C@H]1CCN([C@H](c2ccc3nnc(-c4ccc5ccc(SCCO)cc5n4)n3c2)C(F)(F)F)C1 [Example 267, 2-(2-(6-((R)-1-((S)-3-aminopyrrolidin-1-yl)-2,2,2-trifluoroethyl)-[1,2,4]triazolo[4,3-a]pyridin-3-yl)quinolin-7-ylthio)ethanol hydrochloride]	0.35	0.7	350
N[C@H]1CCN([C@H](c2ccc3nnc(-c4ccc5ccc(OC(F)(F)F)cc5n4)n3c2)C(F)(F)F)C1 [Example 239, (S)-1-((R)-2,2,2-trifluoro-1-(3-(7-(trifluoromethoxy)quinolin-2-yl)-[1,2,4]triazolo[4,3-a]pyridin-6-yl)ethyl)pyrrolidin-3-amine dihydrochloride]	1.66	12	> 1000
N[C@H]1CCN([C@H](c2ccc3nnc(-c4ccc5cc(F)cc(C6CC6)c5n4)n3c2)C(F)(F)F)C1 [Example 177, (S)-1-((R)-1-(3-(8-cyclopropyl-6-fluoroquinolin-2-yl)-[1,2,4]triazolo[4,3-a]pyridin-6-yl)-2,2,2-trifluoroethyl)pyrrolidin-3-amine dihydrochloride]	0.31	1.7	> 100
COCCc1ccc2ccc(-c3nnc4ccc([C@@H](N5CC[C@H](N)C5)C(F)(F)F)cn34)nc2c1 [Example 269, (S)-1-((R)-2,2,2-trifluoro-1-(3-(7-(2-methoxyethyl)quinolin-2-yl)-[1,2,4]triazolo[4,3-a]pyridin-6-yl)ethyl)pyrrolidin-3-amine dihydrochloride]	0.37	2	413
CC(C)(O)Cc1cc2nc(-c3nnc4ccc([C@H](N5CC[C@H](N)C5)C(F)(F)F)cn34)ccc2cc1F [Example 237, dihydrochloride]	2.91	1.8	211
CCSc1cccc2ccc(-c3nnc4ccc([C@@H](N5CC[C@H](N)C5)C(F)(F)F)cn34)nc12 [Example 273, (S)-1-((R)-1-(3-(8-(ethylthio)quinolin-2-yl)-[1,2,4]triazolo[4,3-a]pyridin-6-yl)-2,2,2-trifluoroethyl)pyrrolidin-3-amine hydrochloride]	25.9	43	> 1000
COc1cccc2ccc(-c3nnc4ccc([C@@H](N5CC[C@](C)(N)C5)C(F)(F)F)cn34)nc12 [Example 246, (S)-3-methyl-1-((R)-2,2,2-trifluoro-1-(3-(8-methoxyquinolin-2-yl)-[1,2,4]triazolo[4,3-a]pyridin-6-yl)ethyl)pyrrolidin-3-amine dihydrochloride]	1.77	15	> 1000
COc1cccc2ccc(-c3nnc4ccc(C(N5CC[C@H](O)C5)C(F)(F)F)cn34)nc12 (stereo partly drawn) [Example 7, (3S)-1-(2,2,2-trifluoro-1-(3-(8-methoxyquinolin-2-yl)-[1,2,4]triazolo[4,3-a]pyridin-6-yl)ethyl)pyrrolidin-3-ol]	3.94	45	> 1000
COCCOc1ccc2ccc(-c3nnc4ccc([C@@H](N5CC[C@H](N)C5)C(F)(F)F)cn34)nc2c1C [Example 117, (S)-1-((R)-2,2,2-trifluoro-1-(3-(7-(2-methoxyethoxy)-8-methylquinolin-2-yl)-[1,2,4]triazolo[4,3-a]pyridin-6-yl)ethyl)pyrrolidin-3-amine hydrochloride]	0.21	0.4	210
CN[C@H]1CCN([C@H](c2ccc3nnc(-c4ccc5ccc(C(=O)NC(C)(C)C)cc5n4)n3c2)C(F)(F)F)C1 [Example 58, N,N-tert-butyl-2-(6-((R)-2,2,2-trifluoro-1-((S)-3-(methylamino)pyrrolidin-1-yl)ethyl)-[1,2,4]triazolo[4,3-a]pyridin-3-yl)quinoline-7-carboxamide]	0.6	0.7	> 100
COC[C@@H](C)Oc1cccc2ccc(-c3nnc4ccc(C(C)N5CC[C@H](N)C5)cn34)nc12 (stereo partly drawn) [Example 33, (3S)-1-(1-(3-(8-((R)-1-methoxypropan-2-yloxy)quinolin-2-yl)-[1,2,4]triazolo[4,3-a]pyridin-6-yl)ethyl)pyrrolidin-3-amine trihydrochloride]	1.41	5.9	759
Cc1c(OC(C)C)ccc2ccc(-c3nnc4ccc([C@@H](N5CC[C@H](N)C5)C(F)(F)F)cn34)nc12 [Example 116, (S)-1-((R)-2,2,2-trifluoro-1-(3-(7-isopropoxy-8-methylquinolin-2-yl)-[1,2,4]triazolo[4,3-a]pyridin-6-yl)ethyl)pyrrolidin-3-amine hydrochloride]	0.24	1.8	76
COCC(C)(C)Oc1cc(F)cc2ccc(-c3nnc4ccc([C@@H](N5CC[C@H](N)C5)C(F)(F)F)cn34)nc12 [Example 264, (S)-1-((R)-2,2,2-trifluoro-1-(3-(6-fluoro-8-(1-methoxy-2-methylpropan-2-yloxy)quinolin-2-yl)-[1,2,4]triazolo[4,3-a]pyridin-6-yl)ethyl)pyrrolidin-3-amine formate]	0.54	1.3	255
C[C@H](CO)Oc1cc(F)cc2ccc(-c3nnc4ccc([C@@H](N5CC[C@H](N)C5)C(F)(F)F)cn34)nc12 [Example 238, (R)-2-(2-(6-((R)-1-((S)-3-aminopyrrolidin-1-yl)-2,2,2-trifluoroethyl)-[1,2,4]triazolo[4,3-a]pyridin-3-yl)-6-fluoroquinolin-8-yloxy)propan-1-ol dihydrochloride]	0.17	0.6	166
CC(C)[C@H](N)C(=O)OCCOc1cc2nc(-c3nnc4ccc([C@@H](N5CC[C@H](N)C5)C(F)(F)F)cn34)ccc2cc1F [Example 290, (S)-2-(2-(6-((R)-1-((S)-3-aminopyrrolidin-1-yl)-2,2,2-trifluoroethyl)-[1,2,4]triazolo[4,3-a]pyridin-3-yl)-6-fluoroquinolin-7-yloxy)ethyl 2-amino-3-methylbutanoate]	29.7	> 100	> 1000
CC1(COc2cccc3ccc(-c4nnc5ccc([C@@H](N6CC[C@H](N)C6)C(F)(F)F)cn45)nc23)COC1 [Example 192, (S)-1-((R)-2,2,2-trifluoro-1-(3-(8-(3-methyloxetan-3-yl)methoxy)quinolin-2-yl)-[1,2,4]triazolo[4,3-a]pyridin-6-yl)ethyl)pyrrolidin-3-amine diformate]	0.17	0.5	80
COCCOc1ccc2ccc(-c3nnc4ccc([C@@H](N5CC[C@](C)(N)C5)C(F)(F)F)cn34)nc2c1 [Example 261, (S)-3-methyl-1-((R)-2,2,2-trifluoro-1-(3-(7-(2-methoxyethoxy)quinolin-2-yl)-[1,2,4]triazolo[4,3-a]pyridin-6-yl)ethyl)pyrrolidin-3-amine dihydrochloride]	0.6	3.3	> 1000
N[C@@H]1CCN(C(c2ccc3nnc(-c4ccc5cccc(OCC6CC6)c5n4)n3c2)C(F)(F)F)C1 (stereo partly drawn) [Example 16, (3R)-1-(1-(3-(8-(cyclopropylmethoxy)quinolin-2-yl)-[1,2,4]triazolo[4,3-a]pyridin-6-yl)-2,2,2-trifluoroethyl)pyrrolidin-3-amine dihydrochloride]	0.28	6	140

From US8889704B2 (Array BioPharma Inc., priority 2011, dated 2014)
